Reference: patent US11155664B2, “Polymeric nanoparticles useful in theranostics” (THE GOVERNING COUNCIL OF THE UNIVERSITY OF TORONTO, priority 2012, dated 2021)
In brackets after ≈: the same amount, converted by molar mass.

How the values were obtained:
[1] = mouse, in vivo
Source text: The data are presented as mean±standard deviation of three independent runs.
T1-weighted images provide only a qualitative reflection of contrast agent distribution, primarily because of the sensitivity profiles of the RF transmit and receiver coils. In contrast, R1 maps provide a better quantitative measure of the contrast agent distribution in the whole body.
The temporal behaviour of the whole-body distribution of contrast agents was quantified by constructing R1 maps at multiple time-points following injection without moving the animal (FIG. 27A). Organ-specific concentration profiles were then quantified directly from R1 measurements in manually segmented regions-of-interest according to Equation 1 (described previously), (FIG. 27B,C).
The R1 of the left ventricular (LV) blood provides a useful indicator of vascular contrast agent enhancement in whole-body images.

MDA-MB435/LCC6/WT cells = assay: MTT cell viability, wild-type cells; type: cell-based, human
Procedure: Cells with no treatment and incubated with blank nanoparticles were used as control for free drug and drug loaded nanoparticle respectively. Cell viability is expressed as the percent of control for each treatment group. Data points represent the mean±standard deviation of the number of trials indicated for each experiment.
The cells were treated with increasing concentrations of doxorubicin or doxorubicin-loaded nanoparticles for 24 hrs and 48 hrs, and the cell viability was determined using MTT assay.

| LV blood R1 [1] | LV blood ΔR1 [1] | SMILES | IC50 (MDA-MB435/LCC6/WT cells; 24 hrs treatment) | IC50 (MDA-MB435/LCC6/WT cells; 48 hrs treatment) |
| --- | --- | --- | --- | --- |
| ~0.7 s⁻¹ | ~0.1 s⁻¹ | CNC(=O)CN(CCN(CCN(CC(=O)[O-])CC(=O)NC)CC(=O)[O-])CC(=O)[O-].[Gd+3] [Omniscan®, diethylenetriamine pentaacetic acid bismethylamide gadolinium] | – | – |
| – | – | COc1cccc2c1C(=O)c1c(O)c3c(c(O)c1C2=O)C[C@@](O)(C(=O)CO)C[C@@H]3O[C@H]1C[C@H](N)[C@H](O)[C@H](C)O1 [free Dox, doxorubicin] | 0.34 µg/mL (≈ 0.626 µM) | 0.07 µg/mL (≈ 0.129 µM) |
